Assay results published in patent US9656971B2, “COMT inhibitors” (Hoffmann-La Roche Inc., priority 2012, dated 2017).
Like-named read-outs stand apart in the source and are kept apart here.

Target: T1, Rec. human COMT (Homo sapiens, UniProt P21964)
T1 sequence (P21964 1-271): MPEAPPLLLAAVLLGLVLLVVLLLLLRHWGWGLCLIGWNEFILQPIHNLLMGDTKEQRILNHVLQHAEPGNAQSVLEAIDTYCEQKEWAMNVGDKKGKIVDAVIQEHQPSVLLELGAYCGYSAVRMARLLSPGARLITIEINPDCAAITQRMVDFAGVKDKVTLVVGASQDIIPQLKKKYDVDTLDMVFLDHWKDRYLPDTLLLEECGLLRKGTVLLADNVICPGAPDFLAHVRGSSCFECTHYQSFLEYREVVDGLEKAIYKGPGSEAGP
Experiment: COMT-Fluorescence Assay
Type: biochemical
Details: rec. human COMT 25 nM, 4-Nitrocatechol-Alexa488 200 nM, SAM 500 nM
Protocol: This intramolecular interaction is disturbed if the 4-Nitrocatechol is methylated. […] This increase of fluorescence intensity can be followed in a kinetic measurement. The slope in the linear range of the kinetic is calculated. An inhibitor compound decreases the slope.
Signal [rfu/min]=(rfu(end-point)−rfu(startpoint))/incubation_time_#2

[1] = COMT-fluorescence assay, read-out: IC50

IC50 [1] [nM]	IC50 (IC50, COMT-fluorescence assay) [nM]	SMILES
20	–	Cc1ncccc1-c1cc(O)c2nc[nH]c(=O)c2c1 [Example 138, 8-hydroxy-6-(2-methylpyridin-3-yl)quinazolin-4(3H)-one]
290	–	O=c1[nH]cnc2c(O)cc(Cl)cc12 [Example 139, 6-Chloro-8-hydroxyquinazolin-4(3H)-one]
5040	–	Cc1ccc(O)c2nc[nH]c(=O)c12 [Example 140, 8-Hydroxy-5-methylquinazolin-4(3H)-one]
–	10	O=c1[nH]cnc2c(O)cc(-c3ccc(-n4cccn4)cc3)cc12 [Example 141, 8-Hydroxy-6-(4-pyrazol-1-yl-phenyl)-3H-quinazolin-4-one]
–	10	O=c1[nH]cnc2c(O)cc(-c3ccc(N4CCOCC4)cc3)cc12 [Example 142, 8-Hydroxy-6-(4-morpholin-4-yl-phenyl)-3H-quinazolin-4-one]
810	–	O=c1[nH]cnc2c(O)ccc(Cl)c12 [Example 143, 5-Chloro-8-hydroxyquinazolin-4(3H)-one]
50	–	O=c1[nH]cnc2c(O)cc(-c3ccc(Br)nc3)cc12 [Example 144, 6-(6-Bromo-pyridin-3-yl)-8-hydroxy-3H-quinazolin-4-one]
70	–	O=c1[nH]cnc2c(O)cc(-c3ccccc3OC(F)(F)F)cc12 [Example 145, 8-Hydroxy-6-(2-trifluoromethoxy-phenyl)-3H-quinazolin-4-one]
–	20	O=c1[nH]cnc2c(O)cc(-c3cccc(N4CCOCC4)c3)cc12 [Example 146, 8-Hydroxy-6-(3-morpholinophenyl)quinazolin-4(3H)-one]
20	–	CN(C)c1ccc(-c2cc(O)c3nc[nH]c(=O)c3c2)cc1 [Example 147, 6-(4-Dimethylamino-phenyl)-8-hydroxy-3H-quinazolin-4-one]
10	–	CN(C)c1cccc(-c2cc(O)c3nc[nH]c(=O)c3c2)c1 [Example 148, 6-(3-Dimethylamino-phenyl)-8-hydroxy-3H-quinazolin-4-one]
–	10	O=c1[nH]cnc2c(O)cc(-c3cccc(Cl)c3)cc12 [Example 149, 6-(3-Chloro-phenyl)-8-hydroxy-3H-quinazolin-4-one]
160	–	O=c1[nH]cnc2c(O)ccc(-c3ccc(F)cc3)c12 [Example 151, 5-(4-Fluorophenyl)-8-hydroxyquinazolin-4(3H)-one]
70	–	O=c1[nH]cnc2c(O)cc(-c3cnn(-c4ccc(F)cc4)c3)cc12 [Example 152, 6-[1-(4-Fluoro-phenyl)-1H-pyrazol-4-yl]-8-hydroxy-3H-quinazolin-4-one]
190	–	O=c1[nH]cnc2c(O)cc(-c3cncnc3)cc12 [Example 153, 8-Hydroxy-6-(pyrimidin-5-yl)quinazolin-4(3H)-one 2,2,2-trifluoroacetate]
20	–	Cn1nc(C(F)(F)F)cc1-c1cc(O)c2nc[nH]c(=O)c2c1 [Example 154, 8-Hydroxy-6-(2-methyl-5-trifluoromethyl-2H-pyrazol-3-yl)-3H-quinazolin-4-one]
–	1380	CN(C)Cc1ccccc1-c1cc(O)c2nc[nH]c(=O)c2c1 [Example 155, 6-(2-((Dimethylamino)methyl)phenyl)-8-hydroxyquinazolin-4(3H)-one]
10	–	Cn1ncc2c(-c3cc(O)c4nc[nH]c(=O)c4c3)cccc21 [Example 156, 8-Hydroxy-6-(1-methyl-1H-indazol-4-yl)quinazolin-4(3H)-one]
–	20	CS(=O)(=O)c1cccc(-c2cc(O)c3nc[nH]c(=O)c3c2)c1 [Example 157, 8-Hydroxy-6-(3-(methylsulfonyl)phenyl)quinazolin-4(3H)-one]
–	30	CS(=O)(=O)c1ccc(-c2cc(O)c3nc[nH]c(=O)c3c2)c(F)c1 [Example 158, 6-(2-Fluoro-4-(methylsulfonyl)phenyl)-8-hydroxyquinazolin-4(3H)-one]
550	–	CC(=O)Nc1ccccc1-c1cc(O)c2nc[nH]c(=O)c2c1 [Example 159, N-(2-(8-Hydroxy-4-oxo-3,4-dihydroquinazolin-6-yl)phenyl)acetamide]
